In the assay the test system is human monocyte-derived macrophages (hMDMs). The assay is described as follows: Itaconate and citrate measurement by GC/MS in hMDMs. Type of assay: cell-based. The method, then: Figure 1 BCAT1 expression and inhibition in human macrophages. […] (b) Chemical structure of ERG240 and leucine. (c) Enzymatic activity of recombinant human BCAT1 and BCAT2 in presence of ERG240. (d) Relative expression of IRG1, HIF1A and IL1B measured by qRT-PCR in control, ERG240-treated (20 mM, 3 h), LPS treated (100 ng ml^−1, 3 h), and LPS+ERG240 treated (LPS, 100 ng ml^−1; ERG240, 20 mM for 3 h) hMDMs. ns, non-significant. All expression values are normalized to those obtained for HPRT gene expression. n=3 healthy donor hMDMs were used in each group. […]
For itaconate, cells pellets containing 1.5 × 10^6 hMDMs were quenched with 400 μl of methanol, previously chilled at −20 °C. […] After a brief centrifugation, derivatized metabolites were transferred into clean GC/MS vials and analysed for the presence of itaconic acid (itaconate) using a 7890A GC System (Agilent Technologies) equipped with an Agilent J&W DB-5ms column (30 m, 0.25 mm, 0.25 μm), connected to an 5975C Triple-Axis MS Detector (Agilent Technologies) and outfitted with an autosampler. […] The amount of itaconate present in the sample was determined after peak integration. […] The GC/MS was performed by Biocrates (BIOCRATES Life Sciences AG, Innsbruck, Austria) and the citrate quantification was performed using their commercially available Kit plates, according to the manufacturer’s instructions. […]

The structures appear in SMILES notation.

For the molecule `CC(=O)C(C)CCC(=O)O` (centres unmarked) [ERG240], for the setting “LPS 3 h 100 ng/ml + ERG240 vs LPS”, the “citrate levels by GC/MS” value was “further significantly increased”. The “itaconate levels measured by GC/MS” value (LPS 8 h 100 ng ml^−1, ERG240 20 mM) is “decreased itaconate levels”.

These data come from PMC5510229, “BCAT1 controls metabolic reprogramming in activated human macrophages and is associated with inflammatory diseases” (Nature Communications, 2017).
